Reference: US10053468B2, “Heterocyclic compound” (TAKEDA PHARMACEUTICAL COMPANY LIMITED, priority 2013, dated 2018)
Read-outs that look alike come from different tables or passages of the source.

How the values were obtained:
RORγt [1] = target: T1, RORγt (Homo sapiens, UniProt P51449); test: RORγt binding test using fluorescent-labeled cholesterol (TR-FRET); conditions: read-out: Binding inhibitory rate of fluorescent-labeled cholesterol to RORγt at test compound 1 μM (%)
T1 sequence (P51449 1-497 isoform P51449-2): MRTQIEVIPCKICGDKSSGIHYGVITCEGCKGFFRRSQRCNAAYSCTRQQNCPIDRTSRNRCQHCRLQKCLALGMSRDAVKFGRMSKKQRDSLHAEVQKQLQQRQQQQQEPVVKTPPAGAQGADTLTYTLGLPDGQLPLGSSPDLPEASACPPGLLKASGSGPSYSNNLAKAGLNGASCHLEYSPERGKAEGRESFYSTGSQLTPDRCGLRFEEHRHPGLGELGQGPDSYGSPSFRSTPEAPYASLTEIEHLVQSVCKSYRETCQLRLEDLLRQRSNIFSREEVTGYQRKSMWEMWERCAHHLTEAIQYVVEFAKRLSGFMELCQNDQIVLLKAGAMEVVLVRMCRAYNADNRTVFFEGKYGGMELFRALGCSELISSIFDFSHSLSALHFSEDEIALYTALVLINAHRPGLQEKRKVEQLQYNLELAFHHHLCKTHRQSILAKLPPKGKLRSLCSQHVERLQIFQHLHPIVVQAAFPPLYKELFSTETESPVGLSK
How it was run: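 TR-FRET displacement with His-tagged RORγt, BODIPY-cholesterol and Tb-anti-His antibody in Tris-HCl pH 7.5, 100 mM NaCl, 1 mM DTT, 0.1% BSA. Compound, RORγt and labelled cholesterol were incubated 20 min at RT, then antibody was added for another 20 min.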

RORγt [2] = target: T1, RORγt; test: Cofactor recruitment test (Alpha Screen, biotinylated SRC-1 peptide); assay type: biochemical; conditions: read-out: Signal value inhibitory rate at test compound 1 μM (%)
Description: Cofactor Recruitment Test
Cofactor recruitment test was performed by Alpha Screen (Histidine Detection Kit, PerkinElmer) method. First, a test compound was diluted with an assay buffer (50 mM Tris-HCl (pH 7.5), 50 mM KCl, 1 mM DTT, 0.1% BSA) and added to a 384 well plate by 5 μL. […] The mixture was stood in a dark place for 1 hr, and the signal value was measured by Envision (PerkinElmer).

RORγt [3] = target: T1, RORγt; test: RORγt binding test using fluorescent-labeled synthetic ligand (TR-FRET); conditions: read-out: Binding inhibitory rate of fluorescent-labeled synthetic ligand to RORγt at test compound 1 μM (%)
Description: RORγt Binding Test Using Fluorescent-labeled Synthetic Ligand
The binding activity of the test compound to RORγt was measured by a time resolved fluorescence resonance energy transfer method (TR-FRET) utilizing histidine-tagged RORγt, fluorescent-labeled synthetic ligand, and terbium-labeled anti-histidine tag antibody (Invitrogen). First, a test compound diluted with an assay buffer (20 mM Tris-HCl (pH 7.5), 100 mM NaCl, 1 mM DTT, 0.1% BSA) was added to a 384 well plate by 3 μL. Then, RORγt diluted with an assay buffer to 240 nM was added by 3 μL, after which fluorescent-labeled synthetic ligand diluted with the assay buffer to 12 μM was added by 3 μL, and the mixture was stood at room temperature for 20 min. Thereafter, a terbium-labeled anti-histidine tag antibody diluted with the assay buffer to 8 nM was added by 3 μL. The mixture was stood at room temperature for 20 min, and fluorescence intensity (excitation wavelength 320 nm, fluorescence wavelength 520 nm, delay time 100 microseconds) was measured by Envision (PerkinElmer).

RORγt [4] = target: T1, RORγt; test: Jurkat reporter test (human IL-17 ROR response element luciferase, RORγt vector); assay type: cell-based; conditions: read-out: Luminescence level inhibitory rate at test compound 3 μM (%)
How it was run: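 Jurkat cells were electroporated (1350 V, 10 ms, 3 pulses) with reporter constructs, then cultured overnight with compound in RPMI containing 10% lipid-reduced FCS, 10 mM HEPES pH 7.5 and 5 μM lovastatin. Luciferase was quantified by Bright-Glo luminescence after 10 min at room temperature.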

[5] = test compound 3 μM, Jurkat cells

Row | SMILES | inhibition at 1 µM (RORγt [1]) [%] | inhibition at 1 µM (RORγt [2]) [%] | inhibition at 1 µM (RORγt [3]) [%] | inhibition at 3 µM (RORγt [4]; [5]) [%] | inhibition at 3 µM (RORγt [4]; Jurkat) [%]
1 | COc1ccc2c(c1)CCN(C(=O)Cc1cc(O)no1)[C@H]2C(=O)Nc1ccc([Si](C)(C)C)c(C#N)c1 [Example 72, (1R)-N-(3-cyano-4-(trimethylsilyl)phenyl)-2-((3-hydroxy-1,2-oxazol-5-yl)acetyl)-6-methoxy-1,2,3,4-tetrahydroisoquinoline-1-carboxamide] | 104 | 94 | 102 |  | 100
2 | COc1ccc2c(c1)CCN(C(=O)Cc1cc(O)no1)[C@H]2C(=O)Nc1ccc([Si](C)(C)C)c(F)c1 [Example 73, (1R)-N-(3-fluoro-4-(trimethylsilyl)phenyl)-2-((3-hydroxy-1,2-oxazol-5-yl)acetyl)-6-methoxy-1,2,3,4-tetrahydroisoquinoline-1-carboxamide] | 102 | 90 | 102 |  | 100
3 | COc1ccc2c(c1)CCN(C(=O)c1cc(O)no1)[C@H]2C(=O)Nc1ccc(C(C)(C)COCC(F)F)c(F)c1 [Example 75, (1R)-N-(4-(1-(2,2-difluoroethoxy)-2-methylpropan-2-yl)-3-fluorophenyl)-2-((3-hydroxy-1,2-oxazol-5-yl)carbonyl)-6-methoxy-1,2,3,4-tetrahydroisoquinoline-1-carboxamide] | 101 | 78 | 102 | 96 | 
4 | COc1ccc2c(n1)CCN(C(=O)c1cc(O)no1)[C@H]2C(=O)Nc1ccc([Si](C)(C)C)c(F)c1 [Example 79, (5R)-N-(3-fluoro-4-(trimethylsilyl)phenyl)-6-((3-hydroxy-1,2-oxazol-5-yl)carbonyl)-2-methoxy-5,6,7,8-tetrahydro-1,6-naphthyridine-5-carboxamide] | 102 | 97 | 102 |  | 102
5 | COc1ccc2c(n1)CCN(C(=O)Cc1cc(O)no1)[C@H]2C(=O)Nc1ccc([Si](C)(C)C)c(F)c1 [Example 80, (5R)-N-(3-fluoro-4-(trimethylsilyl)phenyl)-6-((3-hydroxy-1,2-oxazol-5-yl)acetyl)-2-methoxy-5,6,7,8-tetrahydro-1,6-naphthyridine-5-carboxamide] | 102 | 97 | 102 |  | 100
6 | CC[Si](C)(C)c1c(F)cc(NC(=O)[C@H]2c3ccc(OC)cc3CCN2C(=O)CCCC(=O)O)cc1F [Example 86, 5-((1R)-1-((4-(ethyl(dimethyl)silyl)-3,5-difluorophenyl)carbamoyl)-6-methoxy-3,4-dihydroisoquinolin-2(1H)-yl)-5-oxopentanoic acid] | 103 | 98 | 102 |  | 101
7 | COCc1ccc2c(c1)CCN(C(=O)Cc1cc(O)no1)[C@H]2C(=O)Nc1ccc([Si](C)(C)C)c(F)c1 [Example 101, (1R)-N-(3-fluoro-4-(trimethylsilyl)phenyl)-2-((3-hydroxy-1,2-oxazol-5-yl)acetyl)-6-(methoxymethyl)-1,2,3,4-tetrahydroisoquinoline-1-carboxamide] | 102 | 99 | 102 |  | 103
8 | COc1ccc2c(c1)CCN(C(=O)CC#N)[C@H]2C(=O)Nc1cc(F)c(C(C)(C)C(=O)N2CCCC2)c(F)c1 [Example 103, (1R)-2-(cyanoacetyl)-N-(3,5-difluoro-4-(2-methyl-1-oxo-1-(pyrrolidin-1-yl)propan-2-yl)phenyl)-6-methoxy-1,2,3,4-tetrahydroisoquinoline-1-carboxamide] | 104 | 101 | 101 | 102 | 

Continued, in another order:

Row | inhibition at 1 µM (RORγt [1]) [%] | inhibition at 1 µM (RORγt [2]) [%] | inhibition at 1 µM (RORγt [3]) [%] | inhibition at 3 µM (RORγt [4]; [5]) [%] | SMILES | inhibition at 3 µM (RORγt [4]; Jurkat) [%]
9 | 102 | 98 | 101 | 100 | COc1ccc2c(c1)CCN(C(=O)Cc1cc(O)no1)[C@H]2C(=O)Nc1ccc(C(C)(C)C)c(C#N)c1 [Example 65, (1R)-N-(4-tert-butyl-3-cyanophenyl)-2-((3-hydroxy-1,2-oxazol-5-yl)acetyl)-6-methoxy-1,2,3,4-tetrahydroisoquinoline-1-carboxamide] | 
10 | 102 | 82 | 102 | 99.5 | CCOc1ccc2c(c1)CCN(C(=O)Cc1cc(O)no1)[C@H]2C(=O)Nc1cc(F)c2c(c1)CCC2(C)C [Example 66, (1R)-6-ethoxy-N-(7-fluoro-1,1-dimethyl-2,3-dihydro-1H-inden-5-yl)-2-((3-hydroxy-1,2-oxazol-5-yl)acetyl)-1,2,3,4-tetrahydroisoquinoline-1-carboxamide] | 
11 | 103 | 87 | 102 | 100 | CCOc1ccc2c(c1)CCN(C(=O)Cc1cc(O)no1)[C@H]2C(=O)Nc1ccc(C(C)(C)C)c(F)c1 [Example 67, (1R)-N-(4-tert-butyl-3-fluorophenyl)-6-ethoxy-2-((3-hydroxy-1,2-oxazol-5-yl)acetyl)-1,2,3,4-tetrahydroisoquinoline-1-carboxamide] | 
12 | 102 | 83 | 101 | 100 | COCC(C)(C)c1ccc(NC(=O)[C@H]2c3ccc(OC)cc3CCN2C(=O)c2cc(O)no2)cc1F [Example 69, (1R)-N-(3-fluoro-4-(1-methoxy-2-methylpropan-2-yl)phenyl)-2-((3-hydroxy-1,2-oxazol-5-yl)carbonyl)-6-methoxy-1,2,3,4-tetrahydroisoquinoline-1-carboxamide] | 
13 | 102 | 82 | 102 | 99 | COCC(C)(C)c1ccc(NC(=O)[C@H]2c3ccc(OC)cc3CCN2C(=O)Cc2cc(O)no2)cc1F [Example 70, (1R)-N-(3-fluoro-4-(1-methoxy-2-methylpropan-2-yl)phenyl)-2-((3-hydroxy-1,2-oxazol-5-yl)acetyl)-6-methoxy-1,2,3,4-tetrahydroisoquinoline-1-carboxamide] | 
14 | 101 | 89 | 102 | 101 | COc1ccc2c(n1)CCN(C(=O)Cc1cc(O)no1)[C@H]2C(=O)Nc1ccc(C(C)(C)C)c(F)c1 [Example 78, (5R)-N-(4-tert-butyl-3-fluorophenyl)-6-((3-hydroxy-1,2-oxazol-5-yl)acetyl)-2-methoxy-5,6,7,8-tetrahydro-1,6-naphthyridine-5-carboxamide] | 
15 | 102 | 96 | 101 | 102 | COCC(C)(C)c1c(F)cc(NC(=O)[C@H]2c3ccc(OC)cc3CCN2C(=O)c2cc(O)no2)cc1F [Example 97, (1R)-N-(3,5-difluoro-4-(1-methoxy-2-methylpropan-2-yl)phenyl)-2-((3-hydroxy-1,2-oxazol-5-yl)carbonyl)-6-methoxy-1,2,3,4-tetrahydroisoquinoline-1-carboxamide] | 
16 | 99 | 96 | 102 | 102 | COCC(C)(C)c1c(F)cc(NC(=O)[C@H]2c3ccc(OC)cc3CCN2C(=O)Cc2cc(O)no2)cc1F [Example 98, (1R)-N-(3,5-difluoro-4-(1-methoxy-2-methylpropan-2-yl)phenyl)-2-((3-hydroxy-1,2-oxazol-5-yl)acetyl)-6-methoxy-1,2,3,4-tetrahydroisoquinoline-1-carboxamide] | 
